One test deals with VEGF. Nature of the test: Evaluation of VEGF protein secretion level (Human VEGF ELISA) in ARPE-19 cell medium under hypoxic conditions. It is filed as cell-based. Here is the method: (§1) ARPE-19 cells (Human retinal pigment epithelial cells, ATCC CRL-2302) were cultured in DMEM/F12 (LM002-08, Welgene) medium containing 10% fetal bovine serum (FBS, 16000-044, Gibco) in an incubator at 37°C with 5% carbon dioxide. When the cells grew sufficiently, they were cultured in experimental culture dishes for protein isolation and medium supernatant acquisition.
(§2) Cells were detached from the culture dish using TrypLE™ Express (Gibco). After centrifugation at 1000 rpm for 3 minutes, the supernatant was removed. The cells were counted and seeded into new culture dishes. Normoxic conditions were maintained by culturing the cells in a 37°C incubator with 5% carbon dioxide, and hypoxic conditions were maintained by culturing the cells in a hypoxic incubator with 1% oxygen, 5% carbon dioxide, and 94% nitrogen gas.
The expression of the downstream gene, angiogenesis inducer VEGF, is regulated by HIF-1α, a major transcription factor under hypoxic conditions, and the level of secreted VEGF protein can be quantitatively confirmed through ELISA (Enzyme Linked Immunosorbent Assay, Human VEGF Quantikine ELISA Kit, R&D systems). For this purpose, the following experiment was conducted.
The compounds of each Example were diluted to 0.1 nM, 1 nM, 3 nM, 10 nM, 30 nM, 100 nM, 300 nM, 1 µM and 10 µM in DMEM/F12 medium containing 1% fetal bovine serum, pretreated for 2 hours, and cultured for 24 hours under hypoxic conditions to obtain the cell medium supernatant. The supernatant was centrifuged at 1000 rpm for 3 minutes, and a specific amount was treated with a VEGF ELISA assay kit and the absorbance value was measured at 450 nm to quantitatively confirm the level of VEGF protein (see Table 1 below).
Based on the results of secreted VEGF protein expression levels in cell media treated with compounds diluted at concentrations ranging from 10 µM to 0.1 nM, the concentration range of the compound at which the secreted VEGF protein level was reduced by 50% or less compared to the untreated control group was derived.

Another test concerns the target T1, HIF-1α (Homo sapiens, UniProt Q16665).
T1 construct: endogenous in cells; host or cells: ARPE-19 (ATCC CRL-2302)
Nature of the test: Analysis of HIF-1α protein expression (Western blot) in ARPE-19 cells under mixed hypoxic condition. It is filed as cell-based. Particulars: concentration range at which HIF-1α expression is reduced by 50% vs untreated control. As to the method:
as §1, §2
In a disease of macular degeneration, hypoxia is a very important condition, and since the expression of downstream genes is regulated by HIF-1α, a transcription factor that is stabilized in hypoxic conditions, the following experiment was conducted to confirm this.
Mixed hypoxic condition was used for HIF-1α stability experiments, in which hypoxia was induced with 1% oxygen and the stability of HIF-1α was enhanced by treatment with cobalt chloride (CoCl2).
The compounds of each Example were diluted to 0.1 nM, 1 nM, 3 nM, 10 nM, 30 nM, 100 nM, 300 nM, 1 µM, and 10 µM in DMEM/F12 medium without fetal bovine serum, pretreated for 16 hours or 2 hours, and cultured for 1 hour or 24 hours in a mixed hypoxic condition. The cell medium was discarded, and protein lysates were obtained by rapidly treating with protein lysis buffer (RIPA Lysis and Extraction buffer, Thermo Fisher Scientific). LDS (4X Bolt ™ LDS Sample buffer) and reducing agent (10X Bolt ™ Sample Reducing Agent) were added together to the protein lysate, and heated at 70°C for 10 minutes. The lysate was separated by electrophoresis on a 4-12% Bis-Tris gel, transferred to a PVDF membrane, and blocked with 3% BSA (Albumin, Bovine, Fraction V, MPbio). The membrane was incubated overnight at 4°C with a mixture of anti-HIF-1α (ab179483, abcam) and anti-b-actin (MA515739, Invitrogen) antibodies at a ratio of 1:4000. The following day, the membrane was treated with a peroxidase-conjugated secondary antibody for 1 hour at room temperature, and the target protein was expressed using an ECL solution (Clarity ™ Western ECL substrate, Bio-rad) and quantified.
Based on the results of the expression level of HIF-1α in cells treated with compounds diluted from 10 µM to 0.1 nM, the concentration range of the compound at which the expression level of HIF-1α was reduced by 50% or less compared to the untreated control group was derived.

Setting [1] is: ARPE-19 cells, pretreated 2 hours, 24 hours hypoxic conditions, secreted VEGF in medium supernatant by ELISA, concentration range reducing VEGF by 50% vs untreated control, read-out: IC50 VEGF.
[2] abbreviates: values marked * in the table, mixed hypoxic condition (1% oxygen + CoCl2) for 24 hours, read-out: IC50 HIF-1α, Hypoxia(24h).
The mark [3] stands for this setting: mixed hypoxic condition (1% oxygen + CoCl2) for 1 hour, read-out: IC50 HIF-1α Hypoxia (1 hour).
Where [4] appears, read: ARPE-19 cells, pretreated 2 hours, 24 hours hypoxic conditions, ELISA, read-out: concentration at which the secreted VEGF protein level was suppressed to less than 50%.
[5] abbreviates: Experimental Example 2 (HIF-1α Western blot), read-out: concentration at which the expression level of VEGF was suppressed to less than 50%.

SMILES strings stand for the structures. Read-outs that look alike come from different tables or passages of the source.

T1 sequence (Q16665 whole entry): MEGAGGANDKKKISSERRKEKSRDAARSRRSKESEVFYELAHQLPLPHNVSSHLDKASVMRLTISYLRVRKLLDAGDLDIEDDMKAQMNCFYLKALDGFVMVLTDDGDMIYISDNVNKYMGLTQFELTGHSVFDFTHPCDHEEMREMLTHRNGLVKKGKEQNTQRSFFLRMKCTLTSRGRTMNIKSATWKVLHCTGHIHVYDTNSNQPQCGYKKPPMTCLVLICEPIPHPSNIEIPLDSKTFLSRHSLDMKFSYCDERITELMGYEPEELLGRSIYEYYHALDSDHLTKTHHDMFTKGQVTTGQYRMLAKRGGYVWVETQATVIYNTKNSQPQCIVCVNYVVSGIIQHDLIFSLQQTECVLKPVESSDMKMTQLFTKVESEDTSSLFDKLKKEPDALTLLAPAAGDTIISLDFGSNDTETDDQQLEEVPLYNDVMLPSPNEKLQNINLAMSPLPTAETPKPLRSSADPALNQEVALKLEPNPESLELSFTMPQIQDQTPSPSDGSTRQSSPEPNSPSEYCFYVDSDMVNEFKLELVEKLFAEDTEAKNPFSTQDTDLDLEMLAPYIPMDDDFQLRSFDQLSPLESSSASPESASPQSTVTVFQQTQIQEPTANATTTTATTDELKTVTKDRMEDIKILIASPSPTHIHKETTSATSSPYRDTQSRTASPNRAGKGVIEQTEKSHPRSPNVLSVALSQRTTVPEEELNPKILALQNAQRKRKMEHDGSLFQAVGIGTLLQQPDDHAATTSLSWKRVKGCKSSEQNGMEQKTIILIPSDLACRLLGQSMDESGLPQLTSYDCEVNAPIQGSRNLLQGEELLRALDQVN

`O=C(NCc1cc(F)cc(-c2cnn(-c3ccc(F)cc3)c2)c1)c1ncnc2nc(C3CCC(F)(F)C3)[nH]c12` (single isomer, unassigned) [84(E1), 8-(3,3-Difluorocyclopentyl)-N-(3-fluoro-5-(1-(4-fluorophenyl)-1H-pyrazol-4-yl)benzyl)-7H-purine-6-carboxamide]: in the test on VEGF (setting [1]), the IC50 was < 100 nM. The DC50 on HIF-1α (setting [2]) was < 100 nM.

With `O=C(NCc1cc(F)cc(-c2cnn(-c3ccc(F)cc3)c2)c1)c1ncnc2nc(C3CC(F)C3)[nH]c12` (single isomer, unassigned) [102(A), N-(3-Fluoro-5-(1-(4-fluorophenyl)-1H-pyrazol-4-yl)benzyl)-8-(3-fluorocyclobutyl)-7H-purine-6-carboxamide], the IC50 in the test on VEGF (setting [1]) is > 10000 nM. Besides, at HIF-1α (setting [2]), the DC50 is 1000 to 10000 nM.

Regarding `O=C(NCc1cc(F)cc(-c2cnn(-c3ccc(F)cc3)c2)c1)c1ncnc2nc(C3CC(F)C3)[nH]c12` (single isomer, unassigned) [102(B), N-(3-Fluoro-5-(1-(4-fluorophenyl)-1H-pyrazol-4-yl)benzyl)-8-(3-fluorocyclobutyl)-7H-purine-6-carboxamide], the IC50 with VEGF (setting [1]) lay within 100 to 1000 nM. Besides, the DC50 at HIF-1α (setting [2]) was 100 to 1000 nM.

`COC(=O)C1CC(c2nc3ncnc(C(=O)NCc4cc(F)cc(-c5cnn(-c6ccc(F)cc6)c5)c4)c3[nH]2)C1` (single isomer, unassigned) [103(A), Methyl 3-(6-((3-fluoro-5-(1-(4-fluorophenyl)-1H-pyrazol-4-yl)benzyl)carbamoyl)-7H-purin-8-yl)cyclobutanecarboxylate]: the IC50 in the test with VEGF (setting [1]) was > 10000 nM. The DC50 on HIF-1α (setting [2]) was > 10000 nM.

For the compound `COC(=O)C1CC(c2nc3ncnc(C(=O)NCc4cc(F)cc(-c5cnn(-c6ccc(F)cc6)c5)c4)c3[nH]2)C1` (single isomer, unassigned) [103(B), Methyl 3-(6-((3-fluoro-5-(1-(4-fluorophenyl)-1H-pyrazol-4-yl)benzyl)carbamoyl)-7H-purin-8-yl)cyclobutanecarboxylate], the IC50 in the test with VEGF (setting [1]) was > 10000 nM. For the same compound, the DC50 on HIF-1α (setting [2]) is > 10000 nM.

With `O=C(NCc1cc(F)cc(-c2cnn(-c3ccc(F)cc3)c2)c1)c1ncnc2nc(C3CCC(F)C3)[nH]c12` (single isomer, unassigned) [110(A), N-(3-Fluoro-5-(1-(4-fluorophenyl)-1H-pyrazol-4-yl)benzyl)-8-(3-fluorocyclopentyl)-7H-purine-6-carboxamide], the IC50 in the test on VEGF (setting [1]) was in the range of 100 to 1000 nM. In addition, at HIF-1α (setting [2]), the DC50 was < 100 nM.

As for `O=C(NCc1cc(F)cc(-c2cnn(-c3ccc(F)cc3)c2)c1)c1ncnc2nc(C3CCC(F)C3)[nH]c12` (single isomer, unassigned) [110(B), N-(3-Fluoro-5-(1-(4-fluorophenyl)-1H-pyrazol-4-yl)benzyl)-8-(3-fluorocyclopentyl)-7H-purine-6-carboxamide], the IC50 with VEGF (setting [1]) fell in the range of 100 to 1000 nM. Further, on HIF-1α (setting [2]), the DC50 was < 100 nM.

As to `O=C(NCc1cc(F)cc(-c2cnn(C(F)(F)F)c2)c1)c1ncnc2nc(C3CCCC3)[nH]c12` [Example 1, 8-Cyclopentyl-N-(3-fluoro-5-(1-(trifluoromethyl)-1H-pyrazol-4-yl)benzyl)-7H-purine-6-carboxamide], in the test with VEGF (setting [1]), the IC50 was 100 to 1000 nM. For the same compound, the DC50 at HIF-1α (setting [3]) was < 100 nM.

As to `O=C(NCc1cc(F)cc(-c2cnn(CC(F)F)c2)c1)c1ncnc2nc(C3CCCC3)[nH]c12` [Example 2, 8-Cyclopentyl-N-(3-(1-(2,2-difluoroethyl)-1H-pyrazol-4-yl)-5-fluorobenzyl)-7H-purine-6-carboxamide], the IC50 in the test on VEGF (setting [1]) is 100 to 1000 nM. The DC50 on HIF-1α (setting [3]) is < 100 nM.

For the compound `O=C(NCc1cc(F)cc(-c2cnn(CC(F)(F)F)c2)c1)c1ncnc2nc(C3CCCC3)[nH]c12` [Example 3, 8-Cyclopentyl-N-(3-fluoro-5-(1-(2,2,2-trifluoroethyl)-1H-pyrazol-4-yl)benzyl)-7H-purine-6-carboxamide], in the test with VEGF (setting [1]), the IC50 lay in the range of 100 to 1000 nM. The DC50 at HIF-1α (setting [3]) is < 100 nM.

Regarding `C[C@H](NC(=O)c1ncnc2nc(C3CCCC3)[nH]c12)c1cccc(-c2cnn(C)c2)c1` [Example 4, (S)-8-cyclopentyl-N-(1-(3-(1-methyl-1H-pyrazol-4-yl)phenyl)ethyl)-7H-purine-6-carboxamide], the IC50 in the test on VEGF (setting [1]) was in the range of 1000 to 10000 nM. Further, the DC50 at HIF-1α (setting [3]) lay in the range of 100 to 1000 nM.

Take `Cn1cc(C(=O)Nc2cc(F)cc(CNC(=O)c3ncnc4nc(C5CCCC5)[nH]c34)c2)cn1` [Example 5, 8-Cyclopentyl-N-(3-fluoro-5-(1-methyl-1H-pyrazole-4-carboxamido)benzyl)-7H-purine-6-carboxamide]: in the test with VEGF (setting [1]), the IC50 lay within 1000 to 10000 nM. Besides, the DC50 at HIF-1α (setting [3]) was 100 to 1000 nM.

In the case of `O=C(NCc1cc(F)cc(-c2cnn(-c3ccccc3)c2)c1)c1ncnc2nc(C3CCCC3)[nH]c12` [Example 7, 8-Cyclopentyl-N-(3-fluoro-5-(1-phenyl-1H-pyrazol-4-yl)benzyl)-7H-purine-6-carboxamide], the IC50 with VEGF (setting [1]) lay within 100 to 1000 nM. In addition, at HIF-1α (setting [3]), the DC50 is < 100 nM.

Regarding `Cn1cc(Nc2cc(F)cc(CNC(=O)c3ncnc4nc(C5CCCC5)[nH]c34)c2)cn1` [Example 8, 8-Cyclopentyl-N-(3-fluoro-5-((1-methyl-1H-pyrazol-4-yl)amino)benzyl)-7H-purine-6-carboxamide], the IC50 in the test with VEGF (setting [1]) was 100 to 1000 nM. In addition, the DC50 on HIF-1α (setting [3]) is < 100 nM.

In the case of `O=C(NCc1cc(F)cc(-c2cnn(Cc3ccccc3)c2)c1)c1ncnc2nc(C3CCCC3)[nH]c12` [Example 9, N-(3-(1-benzyl-1H-pyrazol-4-yl)-5-fluorobenzyl)-8-cyclopentyl-7H-purine-6-carboxamide], the IC50 in the test with VEGF (setting [1]) fell in the range of 100 to 1000 nM. The DC50 at HIF-1α (setting [3]) was < 100 nM.

`O=C(NCc1cc(F)cc(Nc2cccnc2)c1)c1ncnc2nc(C3CCCC3)[nH]c12` [Example 10, 8-Cyclopentyl-N-(3-fluoro-5-(pyridin-3-ylamino)benzyl)-7H-purine-6-carboxamide]: in the test on VEGF (setting [1]), the IC50 lay within 100 to 1000 nM. Besides, at HIF-1α (setting [3]), the DC50 was < 100 nM.

On to `O=C(NCc1cc(F)cc(-c2cn[nH]c2)c1)c1ncnc2nc(C3CCCC3)[nH]c12` [Example 11, 8-Cyclopentyl-N-(3-fluoro-5-(1H-pyrazol-4-yl)benzyl)-7H-purine-6-carboxamide], for which the IC50 in the test with VEGF (setting [4]), in the test on VEGF (setting [1]) and in the test on VEGF (setting [5]) was < 100 nM in each case. Moreover, the DC50 at HIF-1α (setting [3]) was < 100 nM.

On to `O=C(NCc1cc(F)cc(-c2cnn(-c3ccncc3)c2)c1)c1ncnc2nc(C3CCCC3)[nH]c12` [Example 12, 8-Cyclopentyl-N-(3-fluoro-5-(1-(pyridin-4-yl)-1H-pyrazol-4-yl)benzyl)-7H-purine-6-carboxamide], for which the IC50 in the test on VEGF (setting [4]), in the test with VEGF (setting [1]) and with VEGF (setting [5]) was < 100 nM throughout. Besides, on HIF-1α (setting [3]), the DC50 was < 100 nM.

For the compound `O=C(NCc1cc(F)cc(-c2cnn(-c3ccc(F)cc3)c2)c1)c1ncnc2nc(C3CCC(F)(F)C3)[nH]c12` (stereo not drawn) [Example 84, 8-(3,3-Difluorocyclopentyl)-N-(3-fluoro-5-(1-(4-fluorophenyl)-1H-pyrazol-4-yl)benzyl)-7H-purine-6-carboxamide], the IC50 with VEGF (setting [4]) and in the test with VEGF (setting [5]) was < 100 nM in each case.

For the origin of these results see patent publication EP4567035A1, “NOVEL COMPOUND AS HYPOXIA-INDUCIBLE FACTOR 1(HIF-1) INHIBITOR OR VASCULAR ENDOTHELIAL GROWTH FACTOR (VEGF) INHIBITOR, AND PHARMACEUTICAL COMPOSITION COMPRISING SAME” (Nextgen Bioscience Co., Ltd., priority 2022, dated 2024).
